Reference: ChEMBL document CHEMBL1201862, “PubChem BioAssay data set” (2004)
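Dose response: 5 concentrations. Exposure: 48 h. Format: 96-well plates. Endpoint: linear interpolation; highest concentration if not reached. GI50: concentration for 50% inhibition of growth.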 The source made the active and inactive calls. Cut-off read from the data, not from the text of the source: active = GI50 up to about 1.1 µM and inactive = higher.

How the values were obtained:
Experiment in all cases: growth of human tumour cells (NCI), 48 h
786-0 = tested on: 786-0
A549 = tested on: A549
DU-145 = tested on: DU-145
HOP-62 = tested on: HOP-62
Hs-578T = tested on: Hs-578T
IGROV-1 = tested on: IGROV-1
LOX IMVI = tested on: LOX IMVI
MDA-MB-435 = tested on: MDA-MB-435
NCI-H460 = tested on: NCI-H460
NCI-H522 = tested on: NCI-H522
OVCAR-3 = tested on: OVCAR-3
RXF 393 = tested on: RXF 393
SF-268 = tested on: SF-268
SF-539 = tested on: SF-539
SK-MEL-28 = tested on: SK-MEL-28
SK-OV-3 = tested on: SK-OV-3
SNB-19 = tested on: SNB-19
T47D = tested on: T47D
UO-31 = tested on: UO-31
RPMI-8226 = tested on: RPMI-8226

| SMILES | GI50 (786-0) | GI50 (A549) | GI50 (DU-145) | GI50 (HOP-62) | GI50 (Hs-578T) | GI50 (IGROV-1) | GI50 (LOX IMVI) | GI50 (MDA-MB-435) | GI50 (NCI-H460) | GI50 (NCI-H522) | GI50 (OVCAR-3) | GI50 (RXF 393) | GI50 (SF-268) | GI50 (SF-539) | GI50 (SK-MEL-28) | GI50 (SK-OV-3) | GI50 (SNB-19) | GI50 (T47D) | GI50 (UO-31) | GI50 (RPMI-8226) |
| --- | --- | --- | --- | --- | --- | --- | --- | --- | --- | --- | --- | --- | --- | --- | --- | --- | --- | --- | --- | --- |
| CCN(CC)/C(Sc1ccccc1)=C(\C(Cl)=C(Cl)Cl)[N+](=O)[O-] | 18 µM (inactive) | 21.7 µM (inactive) | 16.9 µM (inactive) | 23.5 µM (inactive) | 20.7 µM (inactive) | 16 µM (inactive) | 11 µM (inactive) | 13.5 µM (inactive) | 21.7 µM (inactive) | 12.6 µM (inactive) | 16.4 µM (inactive) | 13.6 µM (inactive) | 21.4 µM (inactive) | 17.3 µM (inactive) | 17.9 µM (inactive) | 33.4 µM (inactive) | 20.6 µM (inactive) | 17.8 µM (inactive) | 14.8 µM (inactive) |  |
| Nc1nnc2oc3ccc4ccccc4c3cc1-2 | 34 µM (inactive) | 47.3 µM (inactive) | 56.5 µM (inactive) | > 100 µM (inactive) | 54.5 µM (inactive) | 30.6 µM (inactive) | 23.5 µM (inactive) | 24.3 µM (inactive) | 27 µM (inactive) | 24.4 µM (inactive) | 34.8 µM (inactive) | 28 µM (inactive) | 34 µM (inactive) |  | 39.9 µM (inactive) | 67.5 µM (inactive) | 51.8 µM (inactive) | 11.4 µM (inactive) | 32 µM (inactive) | 30.5 µM (inactive) |
| Clc1c(Cl)c(Cl)c2c(nnn2C2CCCO2)c1Cl (stereo not given) | 45.8 µM (inactive) | 24.7 µM (inactive) | 51.5 µM (inactive) | 40.5 µM (inactive) | 25.8 µM (inactive) | 34.4 µM (inactive) |  | 34.1 µM (inactive) | 13.9 µM (inactive) | 23.8 µM (inactive) | 34.6 µM (inactive) | 44.4 µM (inactive) | 29.8 µM (inactive) | 30.7 µM (inactive) |  | 75.9 µM (inactive) |  | 50.9 µM (inactive) |  |  |
| C=CC(O)C#Cc1cnc(OC)nc1OC (stereo not given) | 38.6 µM (inactive) | > 100 µM (inactive) | > 100 µM (inactive) | > 100 µM (inactive) | > 100 µM (inactive) | > 100 µM (inactive) | > 100 µM (inactive) | > 100 µM (inactive) | > 100 µM (inactive) | 54.2 µM (inactive) | > 100 µM (inactive) | > 100 µM (inactive) | > 100 µM (inactive) | > 100 µM (inactive) | > 100 µM (inactive) |  | > 100 µM (inactive) | > 100 µM (inactive) | > 100 µM (inactive) |  |
| Cc1nc2c(C)c3c([nH]c4ccc(Cl)cc43)c(C)c2c(O)c1C | 3.99 µM (inactive) | 2.82 µM (inactive) | 5.71 µM (inactive) | 4.23 µM (inactive) | 15.9 µM (inactive) | 5.27 µM (inactive) | 4.06 µM (inactive) | 6.34 µM (inactive) | 2.07 µM (inactive) | 4.16 µM (inactive) | 7.94 µM (inactive) |  | 16.1 µM (inactive) | 6.21 µM (inactive) | 10.8 µM (inactive) | 16.5 µM (inactive) | 15.7 µM (inactive) | 4.66 µM (inactive) | 3.66 µM (inactive) | 3.3 µM (inactive) |
| S=C(Nc1ccc2c(c1)oc1ccccc12)c1cccnc1 | 35.3 µM (inactive) | 37.6 µM (inactive) | > 100 µM (inactive) | 17.1 µM (inactive) | > 10 µM (inactive) | 41.1 µM (inactive) | > 100 µM (inactive) | > 100 µM (inactive) | 24.6 µM (inactive) | 22 µM (inactive) | 22 µM (inactive) |  | 29.5 µM (inactive) |  | > 100 µM (inactive) | 20.4 µM (inactive) | 21.3 µM (inactive) | 30.5 µM (inactive) | 22.7 µM (inactive) | > 100 µM (inactive) |
| O=S(=O)(O)c1ccccc1/N=N\c1ccc(/N=N/c2c(O)ccc3ccccc23)c(S(=O)(=O)O)c1 | > 100 µM (inactive) | > 100 µM (inactive) | > 100 µM (inactive) | > 100 µM (inactive) | > 100 µM (inactive) | > 100 µM (inactive) |  | > 100 µM (inactive) |  | > 100 µM (inactive) | > 100 µM (inactive) | > 100 µM (inactive) | > 100 µM (inactive) |  | > 100 µM (inactive) | > 100 µM (inactive) | > 100 µM (inactive) | > 100 µM (inactive) | > 100 µM (inactive) | > 100 µM (inactive) |
| CC(C)=CCC[C@@H](C)C1=C(O)C(=O)C(C)=C(N)C1=O | 33.4 µM (inactive) | 25.8 µM (inactive) | 42.7 µM (inactive) | 23.2 µM (inactive) | 38.9 µM (inactive) | 7.69 µM (inactive) | 15.7 µM (inactive) | 41 µM (inactive) | 10.2 µM (inactive) |  | 27.9 µM (inactive) | 32.9 µM (inactive) | 21.5 µM (inactive) | 31.6 µM (inactive) | 34.8 µM (inactive) | 27.3 µM (inactive) | 32.5 µM (inactive) | 23.9 µM (inactive) | 11.1 µM (inactive) | 27.3 µM (inactive) |
| Cc1cn(CCOCCOC(=O)NC(CCCNC(N)=O)C(=O)O)c(=O)[nH]c1=O (stereo not given) | > 100 µM (inactive) | > 100 µM (inactive) | > 100 µM (inactive) | > 100 µM (inactive) | > 100 µM (inactive) | 36 µM (inactive) | > 100 µM (inactive) | > 100 µM (inactive) | > 100 µM (inactive) |  | > 100 µM (inactive) | > 100 µM (inactive) | > 100 µM (inactive) | > 100 µM (inactive) | > 100 µM (inactive) | > 100 µM (inactive) | > 100 µM (inactive) | > 100 µM (inactive) | > 100 µM (inactive) | > 100 µM (inactive) |
| c1ccc(SCCP(CCP(c2ccccc2)c2ccccc2)c2ccccc2)cc1 (stereo not given) | 4.57 µM (inactive) | 6.17 µM (inactive) | 3.41 µM (inactive) | 8.2 µM (inactive) | 4.61 µM (inactive) | 6.34 µM (inactive) |  | 11.5 µM (inactive) | 2.84 µM (inactive) |  | 3.88 µM (inactive) | 3.9 µM (inactive) | > 25.5 µM (inactive) | 34.9 µM (inactive) | 21.3 µM (inactive) | 6.61 µM (inactive) | 2.95 µM (inactive) | 6.58 µM (inactive) | 7.73 µM (inactive) | 3.14 µM (inactive) |
| CC(=O)O[C@@H]1[C@H](OC2CCCCC2(c2ccccc2)c2ccccc2)O[N+]([O-])=CC12CCCCC2 (stereo not given in full) | 13.4 µM (inactive) | 17.7 µM (inactive) | 18.1 µM (inactive) |  | 19.2 µM (inactive) | 20.1 µM (inactive) | 22 µM (inactive) | 15.6 µM (inactive) | 18.2 µM (inactive) | 18.6 µM (inactive) | 14.9 µM (inactive) | 17.8 µM (inactive) | 18.6 µM (inactive) | 20 µM (inactive) | 13.8 µM (inactive) | 13.4 µM (inactive) |  | 18.4 µM (inactive) | 17.5 µM (inactive) | 33 µM (inactive) |
| C=CCOC(=O)Cn1cnc2c(N)ncnc21 | > 100 µM (inactive) | > 100 µM (inactive) | > 100 µM (inactive) | > 100 µM (inactive) | > 100 µM (inactive) | > 100 µM (inactive) | > 100 µM (inactive) | > 100 µM (inactive) | > 100 µM (inactive) |  |  |  | > 100 µM (inactive) | > 100 µM (inactive) | > 100 µM (inactive) | > 100 µM (inactive) | > 100 µM (inactive) | > 100 µM (inactive) | > 100 µM (inactive) | > 100 µM (inactive) |
| CCOC(=O)Nc1c(C#N)[n+]([O-])c2cc(Cl)c(Cl)cc2[n+]1[O-] | 15.6 µM (inactive) | 22 µM (inactive) | 32.5 µM (inactive) | 45.7 µM (inactive) | 39.5 µM (inactive) | 13.1 µM (inactive) | 6.1 µM (inactive) | 16.4 µM (inactive) | 13.7 µM (inactive) |  | 20.1 µM (inactive) | 15.1 µM (inactive) | 15.3 µM (inactive) | 12.9 µM (inactive) | 14.6 µM (inactive) | 24.2 µM (inactive) | 21.7 µM (inactive) | 13.5 µM (inactive) | 16.6 µM (inactive) | 2.15 µM (inactive) |
| COc1cccc(C[C@H]2COC(=O)[C@]2(O)Cc2cccc(OC)c2)c1 | > 100 µM (inactive) | > 100 µM (inactive) | > 100 µM (inactive) | > 100 µM (inactive) | > 100 µM (inactive) | > 100 µM (inactive) | > 100 µM (inactive) | > 100 µM (inactive) | 48.2 µM (inactive) | 55.7 µM (inactive) | 97.5 µM (inactive) |  | < 0.01 µM (active) | > 100 µM (inactive) | > 100 µM (inactive) | > 100 µM (inactive) | > 100 µM (inactive) | 18.1 µM (inactive) | > 100 µM (inactive) | 93.3 µM (inactive) |
| CCOC(=O)C1=C(C)NC(c2ccccc2)=C(C(=O)OCc2ccccc2)C1C#Cc1ccccc1 (stereo not given) | > 100 µM (inactive) |  | > 100 µM (inactive) | > 100 µM (inactive) | > 100 µM (inactive) | 79.8 µM (inactive) | > 100 µM (inactive) | > 100 µM (inactive) |  |  | > 100 µM (inactive) | > 100 µM (inactive) | > 100 µM (inactive) | > 100 µM (inactive) |  | > 100 µM (inactive) | > 100 µM (inactive) | > 100 µM (inactive) | 58.2 µM (inactive) | > 100 µM (inactive) |
